{"source": "patent US12029739B2", "about": "“SHP2 inhibitor and use thereof” (KANAPH THERAPEUTICS INC., priority 2021, dated 2024)"}
{"target": "T1, SHP2 (full length) (Homo sapiens, UniProt Q06124)", "T1 construct": "SHP2 (full length, diluted to 100 pM final concentration in reaction buffer, BPS bioscience, US); purchased BPS bioscience, US", "T1 sequence (Q06124 1-593)": "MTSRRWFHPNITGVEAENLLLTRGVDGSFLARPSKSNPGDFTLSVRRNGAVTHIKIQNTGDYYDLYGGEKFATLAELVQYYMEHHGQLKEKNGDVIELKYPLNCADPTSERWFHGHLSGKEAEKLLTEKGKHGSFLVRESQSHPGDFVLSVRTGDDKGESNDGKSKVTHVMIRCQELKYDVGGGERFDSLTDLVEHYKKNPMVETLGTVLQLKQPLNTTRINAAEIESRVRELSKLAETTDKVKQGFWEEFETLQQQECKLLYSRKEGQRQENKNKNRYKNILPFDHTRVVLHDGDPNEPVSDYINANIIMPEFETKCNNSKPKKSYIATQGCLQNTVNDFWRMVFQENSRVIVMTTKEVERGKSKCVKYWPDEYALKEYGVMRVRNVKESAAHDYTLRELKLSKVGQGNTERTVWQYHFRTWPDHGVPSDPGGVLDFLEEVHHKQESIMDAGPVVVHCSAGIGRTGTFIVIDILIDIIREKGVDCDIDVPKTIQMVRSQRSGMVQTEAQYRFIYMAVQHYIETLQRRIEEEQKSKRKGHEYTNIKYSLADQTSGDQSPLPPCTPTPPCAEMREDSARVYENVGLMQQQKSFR", "assay": "Phosphatase assay (PTPase assay) with DiFMUP substrate", "type": "biochemical", "details": "SHP2 activated with SHP2 activating peptide; DiFMUP 80 μM, 2 hours; fluorescence; read-out: IC50 (PTPase aS say)", "units": {"IC50": "nM"}}
{"molecule": "C[C@@H]1OCC2(CCN(c3cnc(Sc4ccnc(C(=O)NCc5ccccc5)c4Cl)cn3)CC2)[C@@H]1N", "note": "[Example 86, 4-((5-((3S,4S)-4-amino-3-methyl-2-oxa-8-azaspiro[4.5]decan-8-yl)pyrazin-2-yl)thio)-N-benzyl-3-chloropicolinamide]", "IC50": "3 to 100"}
{"molecule": "C[C@@H]1OCC2(CCN(c3cnc(Sc4ccc5ncn(CC6CCNC6)c(=O)c5c4Cl)cn3)CC2)[C@@H]1N", "note": "(stereo partly drawn) [Example 55, 6-((5-((3S,4S)-4-amino-3-methyl-2-oxa-8-azaspiro[4.5]decan-8-yl)pyrazin-2-yl)thio)-5-chloro-3-(pyrrolidin-3-ylmethyl)quinazolin-4(3H)-one]", "IC50": "3 to 100"}
{"molecule": "N[C@@H]1c2ccccc2CC12CCN(c1cnc(Sc3ccc4ncn(Cc5ccccc5)c(=O)c4c3Cl)cn1)CC2", "note": "[Example 99, (S)-6-((5-(1-amino-1,3-dihydrospiro(indene-2,4′-piperidin]-1′-yl)pyrazin-2-yl)thio)-3-benzyl-5-chloroquinazolin-4(3H)-one]", "IC50": "< 3"}
{"molecule": "Cn1c(N2CCN(C[C@@H](N)Cc3ccncc3)CC2)nc(N)c(Sc2cccc(Cl)c2Cl)c1=O", "note": "[Example 187, (S)-6-amino-2-(4-(2-amino-3-(pyridin-4-yl)propyl)piperazin-1-yl)-5-((2,3-dichlorophenyl)thio)-3-methylpyrimidin-4(3H)-one]", "IC50": "> 100"}
{"molecule": "C[C@@H]1OCC2(CCN(c3cnc(Sc4ccc5ncn(Cc6ccno6)c(=O)c5c4Cl)cn3)CC2)[C@@H]1N", "note": "[Example 57, 6-((5-((3S,4S)-4-amino-3-methyl-2-oxa-8-azaspiro[4.5]decan-8-yl)pyrazin-2-yl)thio)-5-chloro-3-(isoxazol-5-ylmethyl)quinazolin-4(3H)-one]", "IC50": "< 3"}
{"molecule": "N[C@H]1c2cccnc2CC12CCN(c1cnc(Sc3ccc4ncn(Cc5ccccc5)c(=O)c4c3Cl)cn1)CC2", "note": "[Example 101, (R)-6-((5-(5-amino-5,7-dihydrospiro[cyclopenta[b]pyridine-6,4′-piperidin]-1′-yl)pyrazin-2-yl)thio)-3-benzyl-5-chloroquinazolin-4(3H)-one]", "IC50": "3 to 100"}
{"molecule": "C[C@@H]1OCC2(CCN(c3cnc(Sc4ccc5ncn(CC6CCCN6)c(=O)c5c4Cl)cn3)CC2)[C@@H]1N", "note": "(stereo partly drawn) [Example 54, 6-((5-((3S,4S)-4-amino-3-methyl-2-oxa-8-azaspiro[4.5]decan-8-yl)pyrazin-2-yl)thio)-5-chloro-3-(pyrrolidin-2-ylmethyl)quinazolin-4(3H)-one]", "IC50": "3 to 100"}
{"molecule": "Cn1c(N2CCN(CCN)CC2)nc(N)c(Sc2ccnc(N)c2Cl)c1=O", "note": "[Example 192]", "IC50": "> 100"}
{"molecule": "C[C@@H]1OCC2(CCN(c3cnc(Sc4ccc5ncn(Cc6ccon6)c(=O)c5c4Cl)cn3)CC2)[C@@H]1N", "note": "[Example 56, 6-((5-((3S,4S)-4-amino-3-methyl-2-oxa-8-azaspiro[4.5]decan-8-yl)pyrazin-2-yl)thio)-5-chloro-3-(isoxazol-3-ylmethyl)quinazolin-4(3H)-one]", "IC50": "< 3"}
{"molecule": "COc1ccc2c(c1)[C@@H](N)C1(CCN(c3cnc(Sc4ccc5ncn(CC(C)(C)O)c(=O)c5c4Cl)cn3)CC1)C2", "note": "[Example 162, (S)-6-((5-(1-amino-6-methoxy-1,3-dihydrospiro[indene-2,4′-piperidin]-1′-yl)pyrazin-2-yl)thio)-5-chloro-3-(2-hydroxy-2-methylpropyl)quinazolin-4(3H)-one]", "IC50": "< 3"}
{"molecule": "N[C@H]1c2ccccc2CC12CCN(c1cnc(Sc3ccc4ncn(Cc5ccccc5)c(=O)c4c3Cl)cn1)CC2", "note": "[Example 100]", "IC50": "3 to 100"}
{"molecule": "COCCn1cnc2ccc(Sc3ncc(N4CCC5(CC4)Cc4ncsc4[C@H]5N)nc3N)c(Cl)c2c1=O", "note": "[Example 164, (S)-6-((3-amino-5-(6-amino-4,6-dihydrospiro[cyclopenta[d]thiazole-5,4′-piperidin]-1′-yl)pyrazin-2-yl)thio)-5-chloro-3-(2-methoxyethyl)quinazolin-4(31-1)-one]", "IC50": "< 3"}
